Format in all cases: cell-based
In one assay the target is T1, hFP (Homo sapiens, UniProt P43088).
T1 construct: expressed in transfected cells; host or cells: HEK-293(EBNA)
The assay can be described thus: FLIPR calcium signal, HEK-293(EBNA) cells expressing hFP. The conditions noted are these: recombinant human FP receptor, read-out: FUNCTIONAL DATA EC50 HFP. The procedure: (§1) Methods for FLIPR™ Studies
(§2) HEK-293(EBNA) cells, stably expressing one type or subtype of recombinant human prostaglandin receptors (prostaglandin receptors expressed: hDP/Gqs5; hEP1; hEP2/Gqs5; hEP3A/Gqi5; hEP4/Gqs5; hFP; hIP; hTP), were cultured in 100 mm culture dishes in high-glucose DMEM medium containing 10% fetal bovine serum, 2 mM 1-glutamine, 250 μg/ml geneticin (G418) and 200 μg/ml hygromycin B as selection markers, and 100 units/ml penicillin G, 100 μg/ml streptomycin and 0.25 μg/ml amphotericin B.
(§3) (b) Calcium Signal Studies on the FLIPR™
(§4) Cells were seeded at a density of 5×10^4 cells per well in Biocoat® Poly-D-lysine-coated black-wall, clear-bottom 96-well plates (Becton-Dickinson) and allowed to attach overnight in an incubator at 37° C. Cells were then washed two times with HBSS-HEPES buffer (Hanks Balanced Salt Solution without bicarbonate and phenol red, 20 mM HEPES, pH 7.4) using a Denley Cellwash plate washer (Labsystems). After 45 minutes of dye-loading in the dark, using the calcium-sensitive dye Fluo-4 AM at a final concentration of 2 μM, plates were washed four times with HBSS-HEPES buffer to remove excess dye leaving 100 μl in each well. Plates were re-equilibrated to 37° C. for a few minutes.
(§5) Cells were excited with an Argon laser at 488 nm, and emission was measured through a 510-570 nm bandwidth emission filter (FLIPR™, Molecular Devices, Sunnyvale, Calif.). Drug solution was added in a 50 μl volume to each well to give the desired final concentration. The peak increase in fluorescence intensity was recorded for each well. On each plate, four wells each served as negative (HBSS-HEPES buffer) and positive controls (standard agonists: BW245C (hDP); PGE2 (hEP1; hEP2/Gqs5; hEP3A/Gqi5; hEP4/Gqs5); PGF2α (hFP); carbacyclin (hIP); U-46619 (hTP), depending on receptor). The peak fluorescence change in each drug-containing well was then expressed relative to the controls.
Compounds were tested in a high-throughput (HTS) or concentration-response (CoRe) format. In the HTS format, forty-four compounds per plate were examined in duplicates at a concentration of 10^−5 M. To generate concentration-response curves, four compounds per plate were tested in duplicates in a concentration range between 10^−5 and 10^−11 M. The duplicate values were averaged. In either, HTS or CoRe format each compound was tested on at least 3 separate plates using cells from different passages to give an n≧3.

In another assay the target is T2, hEP3A/Gqi5 (Homo sapiens, UniProt P43115).
T2 construct: expressed in transfected cells; host or cells: HEK-293(EBNA)
T2 sequence (P43115 1-390): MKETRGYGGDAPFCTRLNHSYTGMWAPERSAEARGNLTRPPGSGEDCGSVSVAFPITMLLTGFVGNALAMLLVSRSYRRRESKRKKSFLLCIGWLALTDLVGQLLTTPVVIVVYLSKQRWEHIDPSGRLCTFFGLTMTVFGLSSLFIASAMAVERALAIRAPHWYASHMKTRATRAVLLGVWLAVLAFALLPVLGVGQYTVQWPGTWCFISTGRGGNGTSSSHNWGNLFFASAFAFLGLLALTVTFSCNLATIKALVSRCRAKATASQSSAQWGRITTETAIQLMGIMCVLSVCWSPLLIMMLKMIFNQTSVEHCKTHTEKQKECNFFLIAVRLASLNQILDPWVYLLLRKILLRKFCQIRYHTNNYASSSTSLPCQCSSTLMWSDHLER
The assay can be described thus: FLIPR calcium signal, HEK-293(EBNA) cells expressing hEP3A/Gqi5. The conditions noted are these: recombinant human EP3A/Gqi5, HEK-293(EBNA), read-out: FUNCTIONAL DATA EC50 HEP3A. As to the method:
as §1, §2, §3, §4, §5
(§6) Compounds were tested in a high-throughput (HTS) or concentration-response (CoRe) format. […]

The target of another assay is T3, hTP (Homo sapiens, UniProt P21731).
T3 construct: expressed in transfected cells; host or cells: HEK-293(EBNA)
T3 sequence (P21731 1-343): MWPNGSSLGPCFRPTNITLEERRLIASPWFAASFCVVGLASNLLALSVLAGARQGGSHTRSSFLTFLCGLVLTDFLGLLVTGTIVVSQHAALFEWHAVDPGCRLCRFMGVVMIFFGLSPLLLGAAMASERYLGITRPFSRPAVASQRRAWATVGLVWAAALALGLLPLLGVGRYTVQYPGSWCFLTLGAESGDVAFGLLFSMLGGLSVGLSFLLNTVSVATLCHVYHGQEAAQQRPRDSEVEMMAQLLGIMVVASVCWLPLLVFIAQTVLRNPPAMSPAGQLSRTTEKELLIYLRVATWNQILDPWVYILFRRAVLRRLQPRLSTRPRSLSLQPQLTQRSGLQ
Description: FLIPR calcium signal, HEK-293(EBNA) cells expressing hTP. The conditions noted are these: recombinant human TP receptor, read-out: FUNCTIONAL DATA EC50 HTP. The procedure: as §1, §2, §3, §4, §5, §6

SMILES strings stand for the structures.

T1 sequence (P43088 whole entry): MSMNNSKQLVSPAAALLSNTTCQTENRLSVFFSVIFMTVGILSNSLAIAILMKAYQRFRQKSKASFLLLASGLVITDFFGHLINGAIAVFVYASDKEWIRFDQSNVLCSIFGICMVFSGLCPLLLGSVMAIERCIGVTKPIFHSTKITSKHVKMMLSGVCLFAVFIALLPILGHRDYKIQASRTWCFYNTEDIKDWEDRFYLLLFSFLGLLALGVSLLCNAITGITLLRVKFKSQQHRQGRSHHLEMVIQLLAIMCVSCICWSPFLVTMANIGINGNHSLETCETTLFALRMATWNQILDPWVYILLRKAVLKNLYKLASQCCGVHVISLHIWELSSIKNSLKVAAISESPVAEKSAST

Consider `Cc1sc(CC[C@H](O)/C=C/[C@H]2[C@H](C)CC(O)[C@@H]2C/C=C\CCCC(=O)O)cc1Br` (single isomer, unassigned), for which, on hFP, the half-maximal effective concentration (EC50) turned out to be 43 nM.
Turning to `C=C[C@@H]1CC(O)[C@H](C/C=C\CCCC(=O)O)[C@H]1/C=C/[C@@H](O)CCc1cc(Br)c(C)s1` (single isomer, unassigned) [drawing 48], the EC50 at hFP is 1530 nM; on hEP3A/Gqi5, 554 nM.
Regarding `C=C[C@@H]1CC(O)[C@H](C/C=C\CCCC(=O)OC)[C@H]1/C=C/[C@@H](O)CCc1cc(Br)c(C)s1` (single isomer, unassigned) [drawing 49], the EC50 at hFP came out at 742 nM; at hEP3A/Gqi5, 6010 nM; on hTP it was 1810 nM.
For the compound `C=C[C@@H]1CC(O)[C@H](C/C=C\CCCC(=O)OC)[C@H]1/C=C/[C@@H](O)CCc1cc(Br)c(C)s1` (single isomer, unassigned) [drawing 51], the EC50 at hFP and at hTP was above 10000 nM in each case.
In the case of `C=C[C@@H]1CC(O)[C@H](C/C=C\CCCC(=O)O)[C@H]1/C=C/[C@@H](O)CCc1cc(Br)c(C)s1` (single isomer, unassigned) [drawing 47], the EC50 on hFP stood at 61 nM; on hEP3A/Gqi5, 304 nM; at hTP, 243 nM.

For orientation: EC50 means the concentration needed to bring the measured effect to its halfway point.

Values taken from patent US8168680B2, “Cyclopentane heptan(ENE)OIC acid, 2-heteroarylalkenyl derivatives as therapeutic agents” (Allergan, Inc., priority 2004, dated 2012).
